From PMC9397467 (Virulence, 2022) come the findings set out here.

For the assay, the target named is T1, Sortase A (SrtA) (Staphylococcus aureus, UniProt Q2FV99).
T1 sequence (Q2FV99 60-206 limits assumed): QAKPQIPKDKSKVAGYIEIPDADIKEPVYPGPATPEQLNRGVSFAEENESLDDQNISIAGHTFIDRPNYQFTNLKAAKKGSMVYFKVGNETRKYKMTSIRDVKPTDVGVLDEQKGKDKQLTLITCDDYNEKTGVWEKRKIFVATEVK
Put plainly: fluorescence quenching. It is filed as binding.

In general, Kd refers to a measure of binding affinity in units of concentration. Higher therefore signals a looser complex. Compound `Oc1cc(O)c2cc(O)c(-c3ccc(O)c(O)c3)[o+]c2c1` [cyanidin chloride] had a Kd of 13.8 µM.
